Blank lines part the entries; values can stand above or below the compound they belong to.
How the values were obtained:
HT29 colon cancer cells = assay: Eight-day colony formation assay, HT29; format: cell-based, human
Experimental: (§1) We sought to identify compounds that would inhibit the growth of cancer cells, but that also did so selectively. Inhibition of cancer cell growth is a highly sought after attribute of anticancer agents. This was assessed by measuring the ability of a compound to inhibit cell growth in eight-day colony formation assays, examining concentrations ranging from 0.017 to 40 μM. Breast, colon, lung and prostate cancer are four of the most common causes of cancer in the United States, are major causes of cancer cell death, and were examined.[64] Two cell lines for each cancer type were assessed: A549 (adenocarcinoma) and H226 (squamous carcinoma) for lung, MCF-7 (estrogen receptor [ER] positive) and MDA-MB-231 (ER negative) for breast, LNCaP (androgen receptor [AR] positive) and PC3-M (AR negative) for prostate, and HCT116 (wild type p53, mutated KRAS) and HT29 (p53 mutant) for colon.[65]
(§2) In considering effect on cancer cells, for each compound and each cell line tested we calculated the efficacy ratio, i.e., efficacy ratio = (percent of remaining cancer cell colonies)/(percent of remaining bone marrow colonies), at 8 days after treatment with 40 μM compound (S4 Fig). We considered those with an efficacy ratio below 0.5 as active and at least partially selective. The stringency of this is highlighted by considering the effect of 5FU on colon cancer, where it is frequently used clinically in proven curative settings, as well as proven life prolonging settings.[70, 71] […] Even at 5.7 μM, where 5FU is toxic to bone marrow, with hematopoietic colony formation at 38% of control, the efficacy ratio for HT29 cells has only dropped to 0.52. […] It can be seen that compounds segregate to protein sites. Specifically, of 10 compounds meeting this activity criteria (i.e., efficacy ratio <0.5), 3 were directed at the Dxr2 site, 3 at FolC2, 2 at FolC1, 1 at Dxr1 and 1 at TYLT.
(§3) Eight-day colony formation assays of cancer cells were performed as described by us.[87] Briefly, 0.5–1.0 × 10^3 cells were seeded into a 12 well plate, after 24 hours compound added and eight days later colonies (of 3 or more cells) were scored after trypan blue staining. Conditions were in replicates of N = 2. All compounds were stored under desiccated conditions in a sealed container at minus 20°C upon arrival. One day prior to use, they were placed into DMSO, stored at […] as stock solutions, thawed just prior to use, and not reused.

human CD34+ stem cells = assay: Bone marrow stem cell (hematopoietic) colony formation assay; format: cell-based; conditions: for mean number of colonies, % of control, 14 day / mean number of colonies, % of control, 8 day: 40 μM compound, mean N=2; for mean number of colonies, % of control, 14 day: 14 days; for mean number of colonies, % of control, 8 day: total colonies at 8 days
Experimental: In parallel with measuring growth inhibition of cancer cell growth, we measured effect on human hematopoietic stem cells. Hematopoietic stem cells reside in the bone marrow and are the source of mature cells present in blood.[66] Bone marrow is one of the most sensitive organs in the body to drug toxicity, especially so for anticancer drugs where it can approach 100%.[67–69] Bone marrow toxicity was measured by performing hematopoietic colony formation assays on human CD34+ stem cells. The stem cell nature of this assay permitted assessment of trilineage colony formation: granulocytic (white blood cells), erythrocytic (red blood cells) and megakaryocytic (platelets), measured by the formation of CFU-GM (colony-forming-granulocyte-macrophage), BFU-E (erythroid burst-forming unites) and CFU-GEMM (colony-forming unit-granulocyte, erythrocyte, monocyte, megakaryocyte) colonies, respectively. Two measurements were taken. Total colonies at eight days were measured, thereby matching the eight-day time frame of cancer cell colony formation assays. At fourteen days, individual colonies have differentiated, permitting quantification of each lineage. Human hematopoietic stem cell trilineage colony formation assays were performed as previously described by us.[65] Briefly, human cord blood CD34+ cells (catalog #: 70008.5) were purchased from StemCell Technology Inc., and seeded at 1 × 10^4 cells per 35 mm dish. Cells were cultured in MethoCult™ Express (StemCell Technologies, Inc.) semisolid media, per manufacturer’s instructions, in the presence of compound or vehicle control. At eight days colonies, i.e., groups of ≥ 10 cells, were counted. At fourteen days, individual colonies of BFU-E, CFU-GM and CFU-GEMM were identified based on manufacturers’ morphologic characterization criteria. Assays were run in replicates of N = 2; some were run in replicates of N = 3, as denoted.

HT116 colon cancer cells = assay: Eight-day colony formation assay, HT116; format: cell-based, human
Experimental: as §1, §2, §3

[1] = test system: PC3-M prostate cancer cells; assay: Eight-day colony formation assay, PC3-M; format: cell-based, human
Experimental: as §1, §2, §3

A549 lung cancer cells = assay: Eight-day colony formation assay, A549; format: cell-based, human
Experimental: as §1, §2, §3

[2] = test system: MCF-7 breast cancer cells; assay: Eight-day colony formation assay, MCF-7; format: cell-based, human
Experimental: as §1, §2, §3

[3] = test system: HT29, MDA-MB-231 and H226; assay: NCI-60 cell line screen, other cell lines; format: cell-based, human; conditions: 10 μM X 48 hours
Experimental: Above findings support the importance of Dxr2 and FolC2 sites, and of Dxr2-017 and FolC2-001 compounds, respectively. The predicted poses of Dxr2-017 bound to the Dxr2 site and FolC2-001 bound to the FolC2 site are shown (Fig 7). The NCI-60 cell line screen evaluates compound growth inhibition and cell toxicity in a highly standardized manner across 60 different cell lines. Dxr2-017 and FolC2-001 were evaluated in this assay (S5 Fig). NCI-60 screens evaluate compounds at 10 μM X 48 hours. […] Of high interest, in the NCI-60 screen Dxr2-017 had relatively high activity against melanoma cell lines, inducing cell death in 5 cell lines ranging from 25–65%, and inhibiting growth in 4 cell lines ranging from 76–96%. Its impact on cell death represents the most striking relative difference in response across cell lines.

[4] = test system: LNCaP prostate cancer cells; assay: Eight-day colony formation assay, LNCaP; format: cell-based, human
Experimental: as §1, §2, §3

H226 lung cancer cells = assay: Eight-day colony formation assay, H226; format: cell-based, human
Experimental: as §1, §2, §3

[5] = test system: MDA-MB-231 breast cancer cells; assay: Eight-day colony formation assay, MDA-MB-231; format: cell-based, human; conditions: MDAMB231
Experimental: as §1, §2, §3

[6] = test system: human breast, prostate, colon and lung cancer cells; assay: Eight-day colony formation assays, summary across the cancer cell line panel; format: cell-based
Experimental: as §1, §2, §3

effect on bone marrow (human CD34+ stem cells; 0.82 μM): no effect | effect on bone marrow colony formation (human CD34+ stem cells; 5.7 μM): profound suppressive effects | hematopoietic colony formation, % of control (human CD34+ stem cells; 5.7 μM): 38 % of control | effect on bone marrow colony formation (human CD34+ stem cells; 40 μM): completely suppresses colony formation
Structure (SMILES): O=c1[nH]cc(F)c(=O)[nH]1 [5FU, 5-fluorouracil, reference compound]
efficacy ratio (HT29 colon cancer cells; 0.82 μM): 0.82 | efficacy ratio (cancer cell colonies to bone marrow colonies at 8 days) (HT29 colon cancer cells; 5.7 μM): 0.52

mean number of colonies, % of control, 14 day (human CD34+ stem cells): 93 % of control | mean number of colonies, % of control, 8 day (human CD34+ stem cells): 109 % of control
Structure (SMILES): Cc1nnsc1C(=O)OCCCn1c(=O)[nH]c2ccccc21 [Dxr2-001]

mean number of colonies, % of control, 14 day (human CD34+ stem cells): 85 % of control | mean number of colonies, % of control, 8 day (human CD34+ stem cells): 80 % of control
Structure (SMILES): c1ccc(CCc2n[nH]c(-c3ccccn3)n2)cc1 [FolC1-031]

mean number of colonies, % of control, 14 day (human CD34+ stem cells): 87 % of control | mean number of colonies, % of control, 8 day (human CD34+ stem cells): 108 % of control
Structure (SMILES): O=C(Cn1c(=O)oc2ccccc21)N1CCn2c1nc1ccccc12 [FolC2-001]
efficacy ratio (cancer cell colonies to bone marrow colonies at 8 days) (HT116 colon cancer cells; 5.7 μM): 0.85 | efficacy ratio (cancer cell colonies to bone marrow colonies at 8 days) (HT116 colon cancer cells; 40 μM): 0.60 | efficacy ratio (cancer cell colonies to bone marrow colonies at 8 days) ([1]; 5.7 μM): 0.96 | efficacy ratio (cancer cell colonies to bone marrow colonies at 8 days) ([1]; 40 μM): 0.41 | efficacy ratio (cancer cell colonies to bone marrow colonies at 8 days) (A549 lung cancer cells; 5.7 μM): 0.99 | efficacy ratio (cancer cell colonies to bone marrow colonies at 8 days) (A549 lung cancer cells; 40 μM): 0.53 | efficacy ratio (cancer cell colonies to bone marrow colonies at 8 days) ([2]; 5.7 μM): 0.65 | efficacy ratio (cancer cell colonies to bone marrow colonies at 8 days) ([2]; 40 μM): 0.43 | efficacy ratio (cancer cell colonies to bone marrow colonies at 8 days) (HT29 colon cancer cells; 5.7 μM): 1.13 | efficacy ratio (cancer cell colonies to bone marrow colonies at 8 days) (HT29 colon cancer cells; 40 μM): 0.79 | activity in NCI-60 screen [3]: against H226 | efficacy ratio (cancer cell colonies to bone marrow colonies at 8 days) ([4]; 5.7 μM): 0.82 | efficacy ratio (cancer cell colonies to bone marrow colonies at 8 days) ([4]; 40 μM): 0.34 | efficacy ratio (cancer cell colonies to bone marrow colonies at 8 days) (H226 lung cancer cells; 5.7 μM): 0.56 | efficacy ratio (cancer cell colonies to bone marrow colonies at 8 days) (H226 lung cancer cells; 40 μM): 0.00 | efficacy ratio (cancer cell colonies to bone marrow colonies at 8 days) ([5]; 5.7 μM): 0.81 | efficacy ratio (cancer cell colonies to bone marrow colonies at 8 days) ([5]; 40 μM): 0.28 | number of cell lines exhibiting an efficacy ratio below 0.5 ([6]; 40 μM): 5 cell lines | relative activity for a given compound, % (% of cells tested where ratio is <0.5) ([6]; 40 μM): 63% | fold higher mean efficacy ratio than that of Dxr2-017 ([6]; 40 μM, cells with ratio below 0.5, P = 0.001): 9.7 fold | mean efficacy ratio for cells/compounds where the efficacy ratio is below 0.5 ([6]; 40 μM, mean ± SEM): 0.29 ± 0.09 | efficacy at concentrations below 40 μM [6]: some degree of efficacy observed

mean number of colonies, % of control, 14 day (human CD34+ stem cells): 101 % of control | mean number of colonies, % of control, 8 day (human CD34+ stem cells): 105 % of control
Structure (SMILES): O=C(CCc1c[nH]c2ccccc12)N1CCSc2ccccc21 [FolC2-005]
efficacy ratio (cancer cell colonies to bone marrow colonies at 8 days) (HT116 colon cancer cells; 40 μM): 0.70 | efficacy ratio (cancer cell colonies to bone marrow colonies at 8 days) ([1]; 40 μM): 0.00 | efficacy ratio (cancer cell colonies to bone marrow colonies at 8 days) (A549 lung cancer cells; 40 μM): 0.69 | efficacy ratio (cancer cell colonies to bone marrow colonies at 8 days) ([2]; 40 μM): 0.33 | efficacy ratio (cancer cell colonies to bone marrow colonies at 8 days) (HT29 colon cancer cells; 40 μM): 0.06 | efficacy ratio (cancer cell colonies to bone marrow colonies at 8 days) ([4]; 40 μM): 0.28 | efficacy ratio (cancer cell colonies to bone marrow colonies at 8 days) (H226 lung cancer cells; 40 μM): 0.11 | efficacy ratio (cancer cell colonies to bone marrow colonies at 8 days) ([5]; 40 μM): 0.78 | relative activity for a given compound, % (% of cells tested where ratio is <0.5) ([6]; 40 μM): 63% | efficacy at concentrations below 40 μM [6]: A similar phenomenon is observed

mean number of colonies, % of control, 14 day (human CD34+ stem cells): 119 % of control | mean number of colonies, % of control, 8 day (human CD34+ stem cells): 93 % of control
Structure (SMILES): O=C(Nc1nnn[nH]1)c1cc(-c2ccccc2)nc2ccccc12 [PRT-051]

mean number of colonies, % of control, 14 day (human CD34+ stem cells): 103 % of control | mean number of colonies, % of control, 8 day (human CD34+ stem cells): 117 % of control
Structure (SMILES): O=C(Cc1n[nH]c(=O)c2ccccc12)Nn1cnc2ccccc21 [TYLT-001]

mean number of colonies, % of control, 14 day (human CD34+ stem cells): 94 % of control | mean number of colonies, % of control, 8 day (human CD34+ stem cells): 97 % of control
Structure (SMILES): O=C(COC(=O)c1cccs1)c1ccc2[nH]c(=O)[nH]c2c1 [TYLT-003]
